From US10434112B2, “Use of agonists of formyl peptide receptor 2 for treating dermatological diseases” (Allergan, Inc., priority 2013, dated 2019) come the findings set out here.

The target of this test is human FPR2 receptor (Homo sapiens (Human), UniProt P25090). Put plainly: FLIPR Ca+2 response in HEK-Gα16 cells stably expressing the human FPR2 receptor. The class given is cell-based. Also noted: FPR2 (% eff): unit not given here. The settings on record: Table 4; for FPR2 (% eff): value in brackets, given mostly as fraction. Here is the method: FLIPR: HEK-Gα16 cells stably expressing the human FPR2 receptor was utilized. Cells were plated into 384-well poly-D-lysine coated plates at a density of 18,000 cells per well one day prior to use. The growth media was DMEM medium supplemented with 10% fetal bovine serum (FBS), 1% antibiotic-antimycotic, 50 μg/ml hygromycin, and 400 μg/ml geneticin. On the day of the experiment, the cells were washed twice with Hank's Balanced Salt Solution supplemented with 20 mM HEPES (HBSS/hepes buffer). The cells were then dye loaded with 2 μM Fluo-4 diluted in the HBSS/Hepes buffer and incubated at 37° C. for 40 minutes. Extracellular dye was removed by washing the cell plates four times prior to placing the plates in the FLIPR (Fluorometric Imaging Plate Reader, Molecular Devices). Ligands were diluted in HBSS/Hepes buffer and prepared in 384-well microplates. Data for Ca^+2 responses were obtained in relative fluorescence units.
Sequence of human FPR2 receptor (P25090 whole entry): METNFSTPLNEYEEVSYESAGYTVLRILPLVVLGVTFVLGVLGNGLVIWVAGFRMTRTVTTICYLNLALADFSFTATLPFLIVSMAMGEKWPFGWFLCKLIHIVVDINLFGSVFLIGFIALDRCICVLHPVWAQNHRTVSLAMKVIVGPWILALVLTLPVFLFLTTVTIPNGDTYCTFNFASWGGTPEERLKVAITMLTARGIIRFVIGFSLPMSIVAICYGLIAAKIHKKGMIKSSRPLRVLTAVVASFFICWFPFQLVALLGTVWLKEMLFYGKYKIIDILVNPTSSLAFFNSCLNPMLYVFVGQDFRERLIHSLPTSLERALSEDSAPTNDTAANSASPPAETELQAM

As for `CC(=O)CNC(=O)[C@H](CC(C)C)NC(=O)Nc1ccc(Br)cc1` [Compound 78, (2S)-2-{[(4-bromophenyl)carbamoyl]amino}-4-methyl-N-(2-oxopropyl)pentanamide], the “FPR2 (% eff)” value is 0.82.

In the case of `CC(C)CC(C)(NC(=O)Nc1ccc(Br)cc1)C(=O)O` (centres unmarked) [Compound 110, 2-{[(4-bromophenyl)carbamoyl]amino}-2,4-dimethylpentanoic acid], the “FPR2 (% eff)” value is recorded as 0.98.

On to `O=C(O)C1C(C(=O)Nc2ccc(I)cc2)C2C=CC1C21CC1` (centres unmarked) [Compound 11, 3-[(4-iodophenyl)carbamoyl]spiro [bicyclo[2.2.1]heptane-7,1′-cyclopropane]-5-ene-2-carboxylic acid], for which the “FPR2 (% eff)” value is recorded as 1.00.

Take `CC(C)C[C@H](NC(=O)Nc1ccc(Br)cc1)C(=O)O` [Compound 9, (2S)-2-{[(4-bromophenyl)carbamoyl]amino}-4-methylpentanoic acid]: the “FPR2 (% eff)” value was 0.77.

Turning to `CSc1ccc(NC(=O)Nc2ccc3c(c2)C(=O)N(CCc2c[nH]cn2)C(c2ccco2)C3)cc1` (centres unmarked) [Compound 23, 1-{3-(furan-2-yl)-2-[2-(1H-imidazol-4-yl)ethyl]-1-oxo-1,2,3,4-tetrahydroisoquinolin-7-yl}-3-[4-(methylsulfanyl)phenyl]urea], the “FPR2 (% eff)” value was 0.83.

As a reminder, the EC50 is the concentration giving half of the maximal effect. On to `CC1(CCc2ccccc2F)NC(=O)N(NC(=O)Nc2ccc(Br)cc2)C1=O` (centres unmarked) [Compound 80, 1-(4-bromophenyl)-3-{4-[2-(2-fluorophenyl)ethyl]-4-methyl-2,5-dioxoimidazolidin-1-yl}urea], for which the EC50 was determined as 14.3 nM and the “FPR2 (% eff)” value is 99.

For `CC(C)C[C@H](NC(=O)Nc1ccc(Br)cc1)C(=O)NCC(=O)N(C)C` [Compound 120, (2S)-2-{[(4-bromophenyl)carbamoyl]amino}-N-[2-(dimethylamino)-2-oxoethyl]-4-methylpentanamide], the “FPR2 (% eff)” value came to 0.99.

With `CC(C)C[C@H](NC(=O)Nc1ccc(Br)cc1)C(=O)N[C@H](C(=O)O)c1ccccc1` [Compound 103, (2S)-{[(2S)-2-{[(4-bromophenyl)carbamoyl]amino}-4-methylpentanoyl]amino} (phenyl)ethanoic acid], the “FPR2 (% eff)” value stood at 1.0.

Take `CC(C)C[C@H](NC(=O)Nc1ccc(Br)cc1F)C(=O)NCC(N)=O` [Compound 84, (2S)-N-(2-amino-2-oxoethyl)-2-{[(4-bromo-2-fluorophenyl)carbamoyl]amino}-4-methylpentanamide]: the “FPR2 (% eff)” value amounted to 0.95.

For the molecule `CC1(CCc2ccccc2O)NC(=O)N(NC(=O)Nc2ccc(Br)cc2F)C1=O` (centres unmarked) [Compound 106, 1-(4-bromo-2-fluorophenyl)-3-[4-[2-[2-hydroxyphenyl)ethyl]-4-methyl-2,5-dioxoimidazolidin-1-yl}urea], the “FPR2 (% eff)” value came to 0.91.

Turning to `NC(=O)C1C(C(=O)Nc2ccc(I)cc2)C2CCC1C21CC1` (centres unmarked) [Compound 38, N-(4-iodophenyl)spiro[bicyclo[2.2.1]heptane-7,1′-cyclopropane]-2,3-dicarboxamide], the “FPR2 (% eff)” value was determined as 0.95.

Take `CC1(CCc2ccc(O)c(F)c2)NC(=O)N(NC(=O)Nc2ccc(Br)cc2)C1=O` (centres unmarked) [Compound 99, 1-(4-bromophenyl)-3-{4-[2-(3-fluoro-4-hydroxyphenyl)ethyl]-4-methyl-2,5-dioxoimidazolidin-1-yl}urea]: the “FPR2 (% eff)” value was 1.0.

Take `CC(C)C[C@H](NC(=O)Nc1ccc(Br)cc1)C(=O)NCc1cc(O)no1` [Compound 116, (2S)-2-{[(4-bromophenyl)carbamoyl]amino}-N-[(3-hydroxy-1,2-oxazol-5-yl)methyl]-4-methylpentanamide]: the “FPR2 (% eff)” value worked out at 1.0.

Molecule `CC[C@H](C)[C@H](NC(=O)Nc1ccc(Br)cc1F)C(=O)NCC(N)=O` [Compound 62, (2S,3S)-N-(2-amino-2-oxoethyl)-2-{[(4-bromo-2-fluorophenyl)carbamoyl]amino}-3-methylpentanamide] registered an EC50 of 10.3 nM and an FPR2 (% eff) of 100.

Consider `CC(C)C1(CC(=O)NCCO)NC(=O)N(NC(=O)Nc2ccc(Br)cc2)C1=O` (centres unmarked) [Compound 133, 2-[1-{[(4-bromophenyl)carbamoyl]amino}-2,5-dioxo-4-(propan-2-yl)imidazolidin-4-yl]-N-(2-hydroxyethyl)acetamide], for which the “FPR2 (% eff)” value amounted to 1.0.

With `CS(=O)(=O)c1ccc(NC(=O)Nc2ccc3c(c2)C(=O)N(CCc2c[nH]cn2)C(c2ccc(Cl)cn2)C3)cc1` (centres unmarked) [Compound 33, 1-{3-(5-chloropyridin-2-yl)-2-[2-(1H-imidazol-4-yl)ethyl]-1-oxo-1,2,3,4-tetrahydroisoquinolin-7-yl}-3-[4-(methylsulfonyl)phenyl]urea], the “FPR2 (% eff)” value came out at 0.99.

For `CC(C)C[C@H](NC(=O)Nc1ccc(Br)cc1)C(=O)N[C@H](C(N)=O)C(C)C` [Compound 92, (2S)-N-[(2S)-1-amino-3-methyl-1-oxobutan-2-yl]-2-{[(4-bromophenyl)carbamoyl]amino}-4-methylpentanamide], the “FPR2 (% eff)” value turned out to be 1.0.

With `CCC[C@H](NC(=O)[C@H](CC(C)C)NC(=O)Nc1ccc(Br)cc1)C(=O)O` [Compound 101, (2S)-2-{[(2S)-2-{[(4-bromophenyl)carbamoyl]amino}-4-methylpentanoyl]amino} pentanoic acid], the “FPR2 (% eff)” value was 0.95.

As for `CC(C)NC(=O)C1C(C(=O)Nc2ccc(Br)cc2)C2CCC1C21CC1` (centres unmarked) [Compound 48, N-(4-bromophenyl)-N′-(propan-2-yl)spiro[bicyclo[2.2.1]heptane-7,1′-cyclopropane]-2,3-dicarboxamide], the “FPR2 (% eff)” value is 1.0.

With `CCOP(=O)(O)CNC(=O)[C@H](CC(C)C)NC(=O)Nc1ccc(C(F)(F)F)cc1` [Compound 135, ethyl hydrogen ({[(2S)-4-methyl-2-({[4-(trifluoromethyl)phenyl]carbamoyl}amino)pentanoyl]amino}methyl)phosphonate], the “FPR2 (% eff)” value stood at 0.91.

With `Cc1ccc(CCC2(C)NC(=O)N(NC(=O)Nc3ccc(Br)cc3)C2=O)o1` (centres unmarked) [Compound 97, 1-(4-bromophenyl)-3-{4-methyl-4-[2-(5-methylfuran-2-yl)ethyl]-2,5-dioxoimidazolidin-1-yl}urea], the “FPR2 (% eff)” value came to 0.95.

Regarding `CC(C)C[C@H](NC(=O)Nc1ccc(Br)cc1F)C(=O)N[C@@H](C)C(=O)O` [Compound 87, (2S)-2-{[(2S)-2-{[(4-bromo-2-fluorophenyl)carbamoyl]amino}-4-methylpentanoyl]amino}propanoic acid], the “FPR2 (% eff)” value was 0.95.

Regarding `C[S+]([O-])c1ccc(NC(=O)Nc2ccc3c(c2)C(=O)N(CCCNC(=O)OC(C)(C)C)[C@@H](c2ccc(C#N)cc2)C3)cc1` (stereo partly drawn) [Compound 40, (+) tert-butyl {3-[(3R)-3-(4-cyanophenyl)-7-({[4-(methylsulfinyl)phenyl]carbamoyl}amino)-1-oxo-3,4-dihydroisoquinolin-2(1H)-yl]propyl}carbamate], the “FPR2 (% eff)” value stood at 0.91.

Regarding `NC(=O)C1C(C(=O)Nc2ccc(I)cc2)C2C=CC1C21CC1` (centres unmarked) [Compound 39, N-(4-iodophenyl)spiro[bicyclo[2.2.1]heptane-7,1′-cyclopropane]-5-ene-2,3-dicarboxamide], the “FPR2 (% eff)” value came out at 0.90.

With `CC(=O)c1ccc(NC(=O)Nc2ccc3c(c2)C(=O)N(CCc2c[nH]cn2)C(c2ccc(C#N)cc2)C3)cc1` (centres unmarked) [Compound 13, 1-(4-acetylphenyl)-3-{3-(4-cyanophenyl)-2-[2-(1H-imidazol-4-yl)ethyl]-1-oxo-1,2,3,4-tetrahydroisoquinolin-7-yl}urea], the “FPR2 (% eff)” value was 0.80.

With `O=C(Nc1ccc(Br)cc1)NN1C(=O)NC2(CCCCC2)C1=O` [Compound 52, 1-(4-bromophenyl)-3-(2,4-dioxo-1,3-diazaspiro[4.5]dec-3-yl)urea], the “FPR2 (% eff)” value is reported as 1.0.

For the molecule `CSCC[C@H](NC(=O)Nc1ccc(Br)cc1)C(=O)NCC(=O)O` [Compound 144, {[(2S)-2-{[(4-bromophenyl)carbamoyl]amino}-4-(methylsulfanyl)butanoyl]amino}acetic acid], the “FPR2 (% eff)” value was determined as 0.91.

`CSc1ccc(NC(=O)C2C(C(N)=O)C3CCC2C3(C)C)cc1` (centres unmarked) [Compound 37, 7,7-dimethyl-N-[4-(methylsulfanyl)phenyl]bicyclo [2.2.1]heptane-2,3-dicarboxamide]: the “FPR2 (% eff)” value is given as 0.85.

As to `CCOP(=O)(O)CNC(=O)[C@H](Cc1ccccc1)NC(=O)Nc1ccc(Br)cc1` [Compound 126, ethyl hydrogen ({[(2S)-2-{[(4-bromophenyl)carbamoyl]amino}3-phenylpropanoyl]amino}methyl)phosphonate], the “FPR2 (% eff)” value is given as 1.0.

For `CC[C@H](C)[C@H](NC(=O)Nc1ccc(Br)cc1F)C(=O)O` [Compound 5, (2S,3S)-2-{[(4-bromo-2-fluorophenyl)carbamoyl]amino}-3-methylpentanoic acid], the “FPR2 (% eff)” value was found to be 0.96.

Turning to `CCC[C@H](NC(=O)Nc1ccc(Br)cc1)C(=O)NCP(=O)(OCC)OCC` [Compound 117, diethyl ({[(2S)-2-{[(4-bromophenyl)carbamoyl]amino}pentanoyl]amino}methy) phosphonate], the “FPR2 (% eff)” value is recorded as 1.0.

As for `CC(C)C[C@H](NC(=O)Nc1ccc(Br)cc1)C(=O)NCP(=O)(OC(C)C)OC(C)C` [Compound 131, dipropan-2-yl({[(2S)-2-{[(4-bromophenyl)carbamoyl]amino}-4-methylpentanoyl]amino}methyl)phosphonate], the “FPR2 (% eff)” value came out at 1.0.

For the molecule `N#Cc1ccc(C2Cc3ccc(NC(=O)Nc4ccc(I)cc4)cc3C(=O)N2CCCN)cc1` (centres unmarked) [Compound 43, 1-[2-(3-aminopropyl)-3-(4-cyanophenyl)-1-oxo-1,2,3,4-tetrahydroisoquinolin-7-yl]-3-(4-iodophenyl)urea], the “FPR2 (% eff)” value came out at 0.94.
